Assay results taken from patent US9782401B1, “Method of isolating phenanthroindolizidine alkaloids from Tylophora atrofolliculata with HIF-1 inhibitory activity, compositions comprising them and their use” (priority 2016, dated 2017).
Read-outs that look alike come from different tables or passages of the source.

Tests used:
[1] = Cytotoxicity by MTT assay against T47D cells; conditions: human
Description: (§1) All experiments were independently performed at least three times.

HIF-1 [2] = target: T1, HIF-1 (Homo sapiens, UniProt Q16665); experiment: HIF-1-mediated reporter gene assay in T47D cells (HRE-luciferase, hypoxia-induced HIF-1 activation); format: cell-based; set-up: endogenous in cells; host or cells: T47D cells (American Type Culture Collection)
T1 sequence (Q16665 whole entry): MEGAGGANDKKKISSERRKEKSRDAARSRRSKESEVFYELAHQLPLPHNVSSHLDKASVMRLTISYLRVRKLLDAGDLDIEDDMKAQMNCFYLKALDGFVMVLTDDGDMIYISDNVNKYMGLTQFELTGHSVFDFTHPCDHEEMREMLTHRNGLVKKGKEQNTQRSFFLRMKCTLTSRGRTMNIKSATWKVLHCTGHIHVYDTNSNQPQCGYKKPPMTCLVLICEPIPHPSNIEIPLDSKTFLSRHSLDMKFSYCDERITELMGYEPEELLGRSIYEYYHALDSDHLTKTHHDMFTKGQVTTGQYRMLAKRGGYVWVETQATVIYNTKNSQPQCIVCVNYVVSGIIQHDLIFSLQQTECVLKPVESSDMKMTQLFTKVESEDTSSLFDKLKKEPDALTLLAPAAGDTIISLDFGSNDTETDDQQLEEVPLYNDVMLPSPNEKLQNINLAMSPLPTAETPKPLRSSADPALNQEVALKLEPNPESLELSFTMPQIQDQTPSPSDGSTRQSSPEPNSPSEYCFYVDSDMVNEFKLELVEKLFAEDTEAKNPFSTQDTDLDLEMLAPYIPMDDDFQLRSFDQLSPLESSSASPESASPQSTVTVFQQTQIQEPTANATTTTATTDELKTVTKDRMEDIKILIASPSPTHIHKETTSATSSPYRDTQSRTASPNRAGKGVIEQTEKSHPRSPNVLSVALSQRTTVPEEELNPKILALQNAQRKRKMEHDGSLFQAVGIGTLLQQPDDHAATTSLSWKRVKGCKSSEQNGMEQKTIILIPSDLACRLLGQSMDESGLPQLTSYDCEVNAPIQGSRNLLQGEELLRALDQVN
Method: The HIF-1-mediated reporter gene assay in T47D cells was performed according to a previous protocol with minor modification (Parhira, S. et al., Sci. Rep., 2014, 4, 4748). T47D cells (American Type Culture Collection) were cultured in DMEM medium (Invitrogen), supplemented with 10% (v/v) fetal serum (FBS) (Invitrogen), 100 U/mL penicillin, and 100 μg/mL streptomycin (Invitrogen) in a humidified atmosphere (5% CO2 and 95% air) at 37° C. Cells (5×10^6) were co-transfected with the HRE-luciferase (Addgene) and Renilla plasmids using Lipofectamine 2000 (Invitrogen) according to the manufacturer's protocol. The transfected cells were seeded in 96-well plates with a density of 5×10^4/well and cultured in DMEM with 10% FBS overnight. After addition of the test compounds with different concentrations, the cells were incubated for 1 h, and then exposed to hypoxic (2% O2/5% CO2/93% N2) or normoxic (5% CO2/95% air) conditions at 37° C. for 20 h. Then the cells were lysed, and luciferase assay was performed using a Dual-Luciferase® reporter assay (Promega) kit according to the instructions of the manufacturer. Luciferase activities of both HRE and Renilla were determined by a multimode reader (Infinite 200 PRO, Teacan). HIF-1 transcriptional activity was shown by the ratio of firefly/Renilla luciferase activity. IC50 values were determined from the dose-response curves using Prism software. The data were repeated by three independent experiments.

T47D cells = experiment: Cytotoxicity by MTT assay against T47D cells; conditions: read-out: Cytotoxicity against T47D cells IC50 (nM) Hypoxic; T47D cells, hypoxic conditions, MTT assay
Description: as §1

HIF-1 [3] = target: T1, HIF-1; conditions: literature value (Hodges et al. 2004; Cai et al. 2006); read-out: HIF-1 inhibition IC50 (literature); cited from earlier work
[4] = T47D cells, Cytotoxicity against T47D cells IC50 (nM) Hypoxic, hypoxic conditions, MTT assay
[5] = T47D cells, Cytotoxicity against T47D cells IC50 (nM) Normoxic, normoxic conditions, MTT assay
[6] = T47D human breast tumor cells, HIF-1 activation induced by hypoxia (2% O2, 20 h), means±SD, read-out: HIF-1 activation inhibitory activity IC50 (nM) T47D
[7] = Cytotoxicity against T47D cells IC50 (nM) Hypoxic, T47D cells, hypoxic conditions, MTT assay
[8] = Cytotoxicity against T47D cells IC50 (nM) Normoxic, T47D cells, normoxic conditions, MTT assay

| Structure (SMILES) | IC50 [1, 4] | IC50 [1, 5] | IC50 (HIF-1 [2]) | IC50 [1, 7] | IC50 [1, 8] | also measured |
| --- | --- | --- | --- | --- | --- | --- |
| COc1cc2c3c(c4cc(OC)c(OC)cc4c2cc1OC)[C@H](O)[C@@H]1CCC[N@@+]1([O-])C3 [compound 10, 10R, 13aS, 14S-14-hydroxytylophorine N-oxide] | > 2000 nM | > 2000 nM |  |  |  | IC50 (HIF-1 [2]; [6]): 441 nM |
| COc1cc2c3c(c4ccc(O)cc4c2cc1O)[C@H](O)[C@@H]1CCCN1C3 [compound 13, 3-O-demethyl tylophorinidine] | > 250 nM | > 250 nM | 10 nM |  |  |  |
| COc1cc2c3c(c4cc(O)c(OC)cc4c2cc1O)[C@@H](O)[C@H]1CCC[N@+]1([O-])C3 [compound 7, 10S, 13aR, 14R-2-hydroxyl tylophorinidine N-oxide] | > 1000 nM | > 1000 nM |  |  |  | IC50 (HIF-1 [2]; [6]): 37 ± 8 nM |
| COc1ccc2c3c(c4cc(OC)c(OC)cc4c2c1)CN1O[C@@H](CC(C)=O)CC[C@H]1[C@H]3O (single isomer, unassigned) [compound 3, 12S, 14aS, 15S-11-oxa-12-(2-oxopropyl)-hydroxyboehmeriasin A] | > 20000 nM | > 10000 nM |  |  |  | IC50 (HIF-1 [2]; [6]): 2660 ± 1810 nM |
| COc1ccc2c3c(c4cc(OC)c(OC)cc4c2c1)CN1CCC[C@H]1[C@@H]3O [compound 18, tylophorinine] |  |  | 19 nM | > 500 nM | > 500 nM |  |
| COc1ccc2c3c(c4cc(OC)c(O)cc4c2c1)C[N+]1([O-])CCC[C@H]1[C@H]3O (stereo partly shown) [compound 16, tylophoridicine C] |  |  | 25 nM |  |  | IC50 (T47D cells): > 100 nM; IC50 [1]: > 100 nM |
| COc1ccc2c(c1)c1cc(OC)c(OC)cc1c1c[n+]3c(cc21)CCC3 [compound 22, tylophoridicine D] |  |  | > 10000 nM |  |  |  |
| COc1ccc2c3c(c4cc(OC)c(O)cc4c2c1)CN1CCC[C@H]1[C@H]3O [compound 14, tylophorinidine] | > 100 nM | > 10 nM | 4 nM |  |  |  |
| COc1cc2c3c(c4cc(OC)c(OC)cc4c2cc1OC)CN1CCC[C@H]1C3 [compound 19, 13aS-tylophorine] |  |  | 438 nM | > 2000 nM | > 1000 nM |  |
| COc1ccc2c3c(c4cc(OC)c(OC)cc4c2c1)C[N@+]1([O-])CCC[C@H]1C3 [compound 12, 10R-deoxytylophorinine N-oxide] |  |  | 254 nM | > 2000 nM | > 1000 nM |  |
| COc1cc2c3c(c4ccc(O)cc4c2cc1O)[C@@H](O)[C@@H]1CCC[N@@+]1([O-])C3 [compound 6, 10R, 14R-3-O-demethyl tylophorinidine N-oxide] | > 200 nM | > 200 nM |  |  |  | IC50 (HIF-1 [2]; [6]): 50 ± 35 nM |
| COc1cc2c(cc1O)c1c(c3cc(OC)c(OC)cc32)C[N@+]2([O-])CCC[C@H]2[C@@H]1O [compound 8, 10R-2-hydroxyl tylophorinine N-oxide] | > 1000 nM | > 1000 nM | 170 ± 106 nM |  |  |  |
| COc1cc2c3c(c4cc(OC)c(OC)cc4c2cc1OC)C[N@+]1([O-])CCC[C@H]1C3 [compound 11, 10R, 13aS-tylophorine N-oxide] | > 2000 nM | > 2000 nM |  |  |  | IC50 (HIF-1 [2]; [6]): 930 nM |
| COc1ccc2c3c(c4cc(OC)c(OC)cc4c2c1)CN1CCC[C@H]1[C@H]3O [compound 21, O-methyl-tylophorindine] |  |  | 13 nM | > 12500 nM | > 500 nM |  |
| COc1ccc2c3c(c4cc(OC)c(O)cc4c2c1)CN1C(=O)CC[C@H]1[C@H]3O [compound 1, 11-keto-tylophorinidine] |  |  | > 10000 nM |  |  |  |
| COc1ccc([C@@H](O)[C@@H](C)Oc2ccc([C@H]3O[C@H](c4ccc(O[C@H](C)[C@H](O)c5ccc6c(c5)OCO6)c(OC)c4)[C@H](C)[C@H]3C)cc2OC)cc1OC [Manassantin B] |  |  |  |  |  | IC50 (HIF-1 [3]): 0.003 µM |
| COc1cc2c3c(c4ccc(O)cc4c2cc1OC)[C@H](O)[C@@H]1CCCN1C3 [compound 15, trans-(+)-3,14a-dihydroxy-6,7-dimethoxyphenanthroindolizidine] | > 250 nM | > 250 nM |  |  |  | IC50 (HIF-1 [2]; [6]): 6 ± 3 nM |
| COc1ccc2c3c(c4cc(OC)c(OC)cc4c2c1)CN1CCC[C@H]1C3 [compound 20, deoxytylophorinine] |  |  | 115 nM | > 15000 nM | > 600 nM | times more potent than its dehydrogenated product (22) (HIF-1 [2]; compound (20) versus (22), HIF-1 IC50): at least 8 times |
| COc1ccc2c3c(c4cc(OC)c(OC)cc4c2c1)C[N+]1([O-])CCC[C@@H]1[C@@H]3O (stereo partly shown) [compound 17, tylophorinine N-oxide] |  |  | 3 nM |  |  | IC50 (T47D cells): > 100 nM; IC50 [1]: > 100 nM |
| COc1cc2c(cc1O)c1c(c3cc(OC)c(OC)cc32)CN2CCC[C@@H]2[C@@H]1O [compound 9, 13aR-2-hydroxyl tylophorinine] |  |  | 489 ± 108 nM | > 2000 nM | > 2000 nM |  |
| COc1cc2c3c(c4cc(O)c(OC)cc4c2cc1O)CC1CCCN1C3 (stereo not shown) [compound 4, 2-hydroxyl deoxytylophorinidine] |  |  | 19 ± 2 nM | > 500 nM | > 500 nM |  |
| COc1cc2c3c(c4cc(O)c(OC)cc4c2cc1O)C(O)C1CCCN1C3 (stereo not shown) [compound 5, 2-hydroxyl tylophorinidine] | > 250 nM | > 250 nM | 10 nM |  |  |  |
